Assay results taken from PMC6492180, “Cytome micronucleus assays with a metabolically competent human derived liver cell line (Huh6): A promising approach for routine testing of chemicals?” (Environmental and Molecular Mutagenesis, 2018).
Where two headings read alike, the source gives them in different places. Marks after values point to notes of the source that are not given here.

Experiments:
[1] = tested on: Human lymphocytes; details: cited from earlier work
[2] = ref IARC (2018); cited from earlier work
[3] = tested on: HepaRG; details: cited from earlier work
[4] = tested on: Huh6 cells
Description: All experiments were performed in duplicate.
3.8–4.0 × 10^5 cells per well were seeded into 6‐well plates with 3 mL of RPMI (4% FBS) for 12 hr, then dilutions of stock solutions of the diagnostic mutagens were added for different time periods (4, 24, and 48 hr). In each experimental series solvent controls were included. Subsequently, the cells were washed twice with 3.0 mL medium. […] Finally, the cells were washed and trypsinised. Afterwards the cells were washed twice with 8.0 mL RPMI and collected on slides by cytocentrifugation (600 rpm, 5 min). The slides were air dried, fixed, and stained with DiffQuick according to the instructions of the manufacturer. For each experimental point, two cultures were tested per dose. From each culture ≥1,000 BN cells were evaluated under 400‐fold magnification (Nikon Photophot‐FXA, Tokyo, Japan). At least 2,000 binucleated cells were analyzed per dose for the determination of the different nuclear anomalies (MN, NBuds, and NBs).
The experiments were performed as described in the previous chapter. The cells were exposed only to one dose of the different mutagens and were cultivated after the seeding in 6‐well plates which contained 4% or 10% FBS in RPMI, respectively.
Data were evaluated by generalized linear model with Poisson counts. Chi‐square tests for overdispersion were applied. […] P values ≤0.05 were considered statistically significant.
^150-60 000 cells were seeded in 6 well plates with 3 ml RPMI (4% FBS), subsequently different solutions of the test compound (dissolved in medium) were added. After treatment for different time periods, the cells was washed and processed as described in the Material and Method section. […] From each culture 1000 binoculated cells were evaluated. BN-MN – number of micronucleated cells; MN - total number of micronuclei; CBPI – cytokinesis-block proliferation index
^1The experiments were conducted essentially as described in the footnote of Table S1A-I. *p≤0.05

[5] = tested on: HepG2; details: cited from earlier work
[6] = tested on: Hep3B; details: cited from earlier work
[7] = 10% FBS, 24 hr treatment, 10 µg/ml

**Q.** Which results are given for `COS(C)(=O)=O` [MMS, Methyl methanesulfonate]?
**A.** Lowest effective concentration (LOEC) in micronucleus experiments ([1]; Human lymphocytes, ref Andreoli et al., 1999): 15.4 µg/mL; Lowest effective concentration (LOEC) in micronucleus experiments ([1]; Human lymphocytes, ref Fowler et al., 2014): 51.0 µg/mL; IARC classification [2]: Methylation of DNA bases; causes gene mutations and CA; IARC: Group 2A; Lowest effective concentration (LOEC) in micronucleus experiments ([3]; HepaRG, ref Josse et al., 2012): 9.9 (Josse et al., 2012) μg/mL; MN formation with the longer exposure time, treatment for 1 or 7 days (in words) ([3]; HepaRG, ref Josse et al., 2012): no such effects; MN effects after 24 hr (or longer) compared with 4 hr treatment (in words) ([4]; 4% FBS): similar; BN-MN (number of micronucleated cells) ([4]; 4% FBS, 4hrs, 6 µg/ml): 20.5 ± 3.5 ‰; Bridges ([4]; 4% FBS, 4hrs, 6 µg/ml): 0.5 ± 0.7 ‰; Buds ([4]; 4% FBS, 4hrs, 6 µg/ml): 20.5 ± 3.5 ‰; CBPI ([4]; 4% FBS, 4hrs, 6 µg/ml): 1.9 ± 0.1; MN (total number of micronuclei) ([4]; 4% FBS, 4hrs, 6 µg/ml): 21.0 ± 4.2 ‰; BN-MN (number of micronucleated cells) ([4]; 4% FBS, 4hrs, 10 µg/ml): 32.5 ± 3.5* ‰; Bridges ([4]; 4% FBS, 4hrs, 10 µg/ml): 3.5 ± 0.7 ‰; Buds ([4]; 4% FBS, 4hrs, 10 µg/ml): 37.0 ± 4.2* ‰; CBPI ([4]; 4% FBS, 4hrs, 10 µg/ml): 1.7 ± 0.1; MN (total number of micronuclei) ([4]; 4% FBS, 4hrs, 10 µg/ml): 39.5 ± 0.7* ‰; BN-MN (number of micronucleated cells) ([4]; 4% FBS, 4hrs, 40 µg/ml): 40.0 ± 7.1* ‰; Bridges ([4]; 4% FBS, 4hrs, 40 µg/ml): 3.5 ± 2.1 ‰; Buds ([4]; 4% FBS, 4hrs, 40 µg/ml): 42.0 ± 17.0* ‰; CBPI ([4]; 4% FBS, 4hrs, 40 µg/ml): 1.5 ± 0.1; MN (total number of micronuclei) ([4]; 4% FBS, 4hrs, 40 µg/ml): 50.5 ± 7.8 ‰; BN-MN (number of micronucleated cells) ([4]; 4% FBS, 24hrs, 0.4 µg/ml): 16.5 ± 0.7 ‰; Bridges ([4]; 4% FBS, 24hrs, 0.4 µg/ml): 0.5 ± 0.7 ‰; Buds ([4]; 4% FBS, 24hrs, 0.4 µg/ml): 9.5 ± 0.7 ‰; CBPI ([4]; 4% FBS, 24hrs, 0.4 µg/ml): 1.7 ± 0.0; MN (total number of micronuclei) ([4]; 4% FBS, 24hrs, 0.4 µg/ml): 16.5 ± 0.7 ‰; BN-MN (number of micronucleated cells) ([4]; 4% FBS, 24hrs, 2 µg/ml): 21.5 ± 2.1 ‰; Bridges ([4]; 4% FBS, 24hrs, 2 µg/ml): 3.0 ± 0.0 ‰; Buds ([4]; 4% FBS, 24hrs, 2 µg/ml): 17.5 ± 0.7 ‰; CBPI ([4]; 4% FBS, 24hrs, 2 µg/ml): 1.7 ± 0.0; MN (total number of micronuclei) ([4]; 4% FBS, 24hrs, 2 µg/ml): 23.5 ± 2.1 ‰; BN-MN (number of micronucleated cells) ([4]; 4% FBS, 24hrs, 10 µg/ml): 29.5 ± 2.1* ‰; Bridges ([4]; 4% FBS, 24hrs, 10 µg/ml): 8.0 ± 1.4 ‰; Buds ([4]; 4% FBS, 24hrs, 10 µg/ml): 27.0 ± 1.4* ‰; CBPI ([4]; 4% FBS, 24hrs, 10 µg/ml): 1.6 ± 0.0; MN (total number of micronuclei) ([4]; 4% FBS, 24hrs, 10 µg/ml): 31.0 ± 2.8* ‰; Change of MN rates after 48 hr treatment (in words) ([4]; 4% FBS, 48 hr): slight decrease; BN-MN (number of micronucleated cells) ([4]; 4% FBS, 48hrs, 0.4 µg/ml): 18.0 ± 1.4 ‰; Bridges ([4]; 4% FBS, 48hrs, 0.4 µg/ml): 0.5 ± 0.7 ‰; Buds ([4]; 4% FBS, 48hrs, 0.4 µg/ml): 19.0 ± 1.4 ‰; CBPI ([4]; 4% FBS, 48hrs, 0.4 µg/ml): 1.8 ± 0.0; MN (total number of micronuclei) ([4]; 4% FBS, 48hrs, 0.4 µg/ml): 20.0 ± 1.4 ‰; BN-MN (number of micronucleated cells) ([4]; 4% FBS, 48hrs, 2 µg/ml): 20.5 ± 0.7 ‰; Bridges ([4]; 4% FBS, 48hrs, 2 µg/ml): 2.5 ± 0.7 ‰; Buds ([4]; 4% FBS, 48hrs, 2 µg/ml): 19.5 ± 0.7 ‰; CBPI ([4]; 4% FBS, 48hrs, 2 µg/ml): 1.9 ± 0.0; MN (total number of micronuclei) ([4]; 4% FBS, 48hrs, 2 µg/ml): 23.5 ± 0.7 ‰; BN-MN (number of micronucleated cells) ([4]; 4% FBS, 48hrs, 10 µg/ml): 24.0 ± 2.8 ‰; Bridges ([4]; 4% FBS, 48hrs, 10 µg/ml): 0.5 ± 0.7 ‰; Buds ([4]; 4% FBS, 48hrs, 10 µg/ml): 27.0 ± 1.4 ‰; CBPI ([4]; 4% FBS, 48hrs, 10 µg/ml): 1.7 ± 0.0; MN (total number of micronuclei) ([4]; 4% FBS, 48hrs, 10 µg/ml): 25.5 ± 3.5 ‰; BN-MN (number of micronucleated cells) [4, 7]: 27.5 ± 2.1*; Bridges [4, 7]: 0.0 ± 0.0; Buds [4, 7]: 20.0 ± 2.8; CBPI [4, 7]: 1.8 ± 0.0; MN (total number of micronuclei) [4, 7]: 30.0 ± 1.4*; MN frequencies with 10% serum compared with 4% serum (in words) ([4]; 24 hr treatment): not increased; Lowest effective concentration (LOEC) in micronucleus experiments ([4]; Huh6): 10.0 µg/mL; MN induction after 28 hr compared with 1 hr exposure (in words) ([5]; HepG2, ref Natarajan and Darroudi (1991)): less pronounced effect; Lowest effective concentration (LOEC) in micronucleus experiments ([5]; HepG2, ref Valentin‐Severin et al., 2003): 11.0 (Valentin‐Severin et al., 2003) μg/mL

**Q.** Which “Lowest effective concentration (LOEC) in micronucleus experiments” value (from here on “Lowest effective concentration (LOEC)”) [6] does the source give for Aflatoxin B1 [AFB1] here?
**A.** 0.5 (Majer et al., 2004) μM

**Q.** What about the “Lowest effective concentration (LOEC)” value [1] of the same compound?
**A.** 0.1 + S9 (Miller et al., 1998) μM

**Q.** What about the “Lowest effective concentration (LOEC)” value [3] of the same compound?
**A.** 0.25 (Le Hegarat et al., 2010) μM

**Q.** And the “MN formation with the longer exposure time, treatment for 1 or 7 days (in words)” value [3]?
**A.** stronger effects

**Q.** And the “Lowest effective concentration (LOEC)” value [4]?
**A.** 10.0 µM

**Q.** What about the “MN effects after 24 hr (or longer) compared with 4 hr treatment (in words)” value [4] of the same compound?
**A.** similar

**Q.** And the “MN frequencies with 10% serum compared with 4% serum (in words)” value [4]?
**A.** stronger effects

**Q.** What about the “Lowest effective concentration (LOEC)” value [5] of the same compound?
**A.** 0.5 (Josse et al., 2012) μM
